The numbers were not newly measured in patent US20230218514A1, “FLOATING SUSTAINED RELEASE TABLET FORMULATION OF DROXIDOPA AND METHOD THEREOF” (priority 2022, published 2023), which cites them from elsewhere.

Molecules are shown by their SMILES. A value given as a limit tells only on which side of the number the result lay.

Assay in series [1]: not given
This is another data set of the same source.

Assay in series [2]: not given
This is another data set of the same source.

The subject of the next series is mice. The settings on record: mouse, in vivo.
A further series concerns rats. The settings on record: rat, in vivo.
Another series concerns dogs. To be noted: dog, in vivo.
Another series deals with monkeys. The settings on record: monkey, in vivo.

As for `N[C@H](C(=O)O)[C@H](O)c1ccc(O)c(O)c1` [Droxidopa, (2S,3R)-2-amino-3-(3,4-dihydroxyphenyl)-3-hydroxypropanoic acid], the Solubility was at least 3 mg/mL. Also, the “Stability in alkaline medium” value (alkaline medium) is given as “highly unstable”. For the same compound, the “Solubility in dilute HCl” value (dilute HCl) is reported as “Soluble”. In addition, where the note is “methanol, glacial acetic acid, ethanol, acetone, chloroform”, the “Solubility in organic solvents” value was “Practically insoluble”. Besides, for the setting “water”, the Solubility in water result is recorded as “Slightly soluble”. Besides, in series [1] (in vivo), the highest concentration (Cmax) is recorded as 3160 ng/mL, the Elimination half life is 2.5 h, the Half-life is 2 to 3 h and the Route of elimination entry is “mainly eliminated through urine”. Further, in series [1] (in vivo), the Tmax was 1 to 4 h and the Volume of distribution is given as 200 L. Further, in series [1] (oral), the Oral bioavailability is 90%. In addition, the Protein binding in series [2] was 75%. Also, in the series with patients (human, in vivo), the Hepatotoxicity entry was “not found”. For the same compound, the “Side effects, share of patients” value with patients (nausea, headache, dizziness, increased B.P, hallucination and anorexia) was 0.78%. For the same compound, in the series on mice, the “Acute oral LD50” value is “more than 5 g/kg”. The “Acute oral LD50” value in the series with rats is on record as “more than 5 g/kg”. Moreover, in the series on dogs, the “Acute oral LD50” value was “more than 5 g/kg”. Besides, the “Acute oral LD50” value in the series with monkeys was “more than 5 g/kg”.
